According to patent US4731473A, “Compounds useful in treating sickle cell anemia” (Merck & Co., Inc., priority 1986, dated 1988):
Where a name gives a salt, the structure may show the parent alone.

How the values were obtained:
sickle hemoglobin (HbS) = sickle hemoglobin (HbS) (Homo sapiens, UniProt P68871+P69905, E7V); experiment: solubility or Csat assay: solubility of deoxygenated sickle hemoglobin (Hofrichter et al.); type: biochemical; conditions: low concentrations (5 mM); versus dichlorobenzyloxyacetic acid and p-bromobenzyloxyacetic acid
Description: One major assay for evaluating antisickling agents involves measuring their effect on increasing the concentration at which sickle hemoglobin forms a gel. This is called the solubility or Csat assay.
The solubility assay (Csat assay) measures the ability of a compound to increase solubility of sickle hemoglobin (HbS). […] The higher the ratio, the higher the activity of the compound.
In order to confirm the effectiveness of these compounds in reducing the effect of sickle cell anemia, tests were performed. The materials were tested according to the assay (Csat) developed by Hofrichter et al. (J. Hofrichter, P. D. Ross and W. A. Eaton, Proc. Natl. Acad. Sci., U.S.A. 73, 30-35, 1976). This assay involves deoxygenation of concentrated sickle hemoglobin with dithionite in the presence of different concentrations of the drugs being tested. Samples are then sealed in quartz epr tubes under anaerobic conditions and spun at about 150,000 g for about 21/2 hours at about 35° C. in an ultracentrifuge. This procedure pellets the polymerized HbS (sickle hemoglobin) to the bottom of the tubes and the supernatant (soluble HbS) is measured in the laboratory as the cyanmethemoglobulin derivative. […] Activity is reported as a ratio of the HbS solubility with the particular drug to HbS solubility with no drug, i.e. control. The higher the ratio the greater degree of activity of the drug. […]

HbS = experiment: Chromatographic separation: covalent binding to HbS
erythrocyte membranes = experiment: Tests of transport across erythrocyte membranes; type: cell-based

In the case of `C=C(CC)C(=O)c1ccc(OCCCC(=O)O)c(Cl)c1Cl` [sodium salt of 4-[2,3-dichloro-4-(2-methylenebutyryl)phenoxy]butyric acid], the “solubility ratio compared with other antisickling agents (in words)” value (sickle hemoglobin (HbS)) is reported as “exhibited a higher solubility ratio than other antisickling agents”, the “covalent binding between HbS and the agent (in words)” value (HbS) is reported as “desired tight covalent binding between the HbS and the therapeutic agent had occurred” and the “ability to cross the red blood cell membrane and react with hemoglobin (in words)” value (erythrocyte membranes) is reported as “confirmed the ability of the agent to cross the red blood cell membrane and react with hemoglobin”.
